Reference: patent US6815546B2, “Analogues of camptothecin, their use as medicaments and the pharmaceutical compositions containing them” (Societe de Recherches et d'Applications Scientifiques …, priority 1995, dated 2004)

Legend:
Assay type in all cases: cell-based
[1] = system: LOVO (cell lines of human colon adenocarcinoma); assay: Test on cell proliferation (MTT test), LOVO; settings: 72 hours
Protocol: (§1) a. Eight tumoral cell lines are used in this study: L1210 (mouse lymphocytic leukemia), HCT15 and LOVO (cell lines of human colon adenocarcinoma), A549 (human lung carcinoma), A172, U373 et U87 (human glioblastoma). All these lines are obtained from the American Type Culture Collection (ATCC), Rockville, Md. The L1210 cell cultures in suspension are cultured in Dulbecco's modified Eagle's medium (DMEM) (BioWhitaker, Verviers, Belgium) together with 10% of foetal calf serum inactivated by heating, 2 mM of glutamine, 50 μg/ml of penicillin and 50 μg/ml of streptomycin. The HT29 cells are cultured in mono-layer cultures in a McCoy 5a medium (Gibco, Paisley, United Kingdom) together with 10% of foetal calf serum inactivated by heat plus 2 mM of glutamine and 50 μg/ml of gentamycin. The other cells are cultured in an Earle's modified essential medium (EMEM; Gibco, Paisley, United Kingdom) together with 5% foetal calf serum inactivated by heat, 2 mM of glutamine, 50 U/ml of penicillin and 50 μg/ml of streptomycin. All the cell lines are cultured at 37° C. in a humidified atmosphere containing 95% air and 5% CO2.
(§2) Inhibition of the tumor cell line proliferation is determined using an MTT test. 1500 L1210 cells in a culture medium (according to the needs of the cell medium) are seeded in a well of a micro-well plate (tissue culture level: 96 wells, flat bottom) 24 hours before treatment with the compounds to be tested. For these dose-response studies, the cells are incubated with each of the compounds to be tested or their corresponding solvent (controls) for 48 hours over a final concentration range of 1.10^−10 to 1.10^−4 M. All the compounds are dissolved just before use in dimethylsulphoxide (DMSO) at a concentration of 50 mM. Other dilutions of the medicaments are carried out in the culture medium. The final concentration of DMSO never exceeds 0.2% (v/v). As controls, the solutions of medicaments are replaced with the solvent which is diluted successively in the same way as the compounds to be tested.
(§3) After the incubation period, the labeling reagent MTT (3-[4,5-dimethylthiazol-2-yl]-2,5-diphenyltetrazolium bromide; Thiazol blue, Sigma M 565, Sigma, St Louis, Mo.) is added at a final concentration of 0.3 mg/ml to each well. The cells are incubated for 4 hours at 37° C. in a humidified atmosphere. This stage allows the mitochondrial dehydrogenase of the living cells to convert the yellow tetrazolium salt MTT into crimson formazan crystals. The supernatant part is eliminated and the formazan crystals formed are solubilized with DMSO. The resultant coloured solution is quantified by absorbance at 570 nm by using a multi-cuvette scanning spectrophotometer. The data concerning the proliferation is expressed as a percentage of living cells in the treated wells, divided by the living cells in the controls. Each point represents the average of three independent experiments, each experiment represents six determinations.
(§4) For the other cell lines (HCT15, LOVO, A549, A172, U373, U87), 1000 to 2000 cells are seeded in the well of a micro-well plate 24 hours before medicinal treatment. […]
(§5) The results are expressed as percentages of the calculated proliferation by the optical density (OD) of the cells treated with a medicament divided by the OD of the control cells (cells treated with DMSO). As represented in Table II, the compounds to be tested have inhibited the proliferation of cells in a dose-dependent manner.

[2] = system: U373 (human glioblastoma); assay: Test on cell proliferation (MTT test), U373; settings: 72 hours
Protocol: as §1, §2, §3, §4, §5

[3] = system: A172 (human glioblastoma); assay: Test on cell proliferation (MTT test), A172; settings: 72 hours
Protocol: as §1, §2, §3, §4, §5

[4] = system: L1210 (mouse lymphocytic leukemia); assay: Test on cell proliferation (MTT test), L1210; settings: 48 hours
Protocol: as §1, §2, §3, §5

[5] = system: HCT15 (cell lines of human colon adenocarcinoma); assay: Test on cell proliferation (MTT test), HCT15; settings: 72 hours
Protocol: as §1, §2, §3, §4, §5

SMILES | PERCENTAGE OF CELL PROLIFERATION ([1]; 0.1 nM) | PERCENTAGE OF CELL PROLIFERATION ([1]; 1 nM) | PERCENTAGE OF CELL PROLIFERATION ([1]; 10 nM) | PERCENTAGE OF CELL PROLIFERATION ([1]; 100 nM) | PERCENTAGE OF CELL PROLIFERATION ([1]; 1 000 nM) | PERCENTAGE OF CELL PROLIFERATION ([1]; 10 000 nM) | PERCENTAGE OF CELL PROLIFERATION ([1]; 100 000 nM) | PERCENTAGE OF CELL PROLIFERATION ([2]; 0.1 nM) | PERCENTAGE OF CELL PROLIFERATION ([2]; 1 nM) | PERCENTAGE OF CELL PROLIFERATION ([2]; 10 nM) | PERCENTAGE OF CELL PROLIFERATION ([2]; 100 nM) | PERCENTAGE OF CELL PROLIFERATION ([2]; 1 000 nM) | PERCENTAGE OF CELL PROLIFERATION ([2]; 10 000 nM) | PERCENTAGE OF CELL PROLIFERATION ([2]; 100 000 nM) | PERCENTAGE OF CELL PROLIFERATION ([3]; 0.1 nM) | PERCENTAGE OF CELL PROLIFERATION ([3]; 1 nM) | PERCENTAGE OF CELL PROLIFERATION ([3]; 10 nM) | PERCENTAGE OF CELL PROLIFERATION ([3]; 100 nM) | PERCENTAGE OF CELL PROLIFERATION ([3]; 1 000 nM) | PERCENTAGE OF CELL PROLIFERATION ([3]; 10 000 nM) | other results
CCC(O)(CC(=O)O)c1cc2n(c(=O)c1CO)Cc1cc3ccccc3nc1-2 (stereo not shown) [Example 4, 3-hydroxy-3-[8-(hydroxymethyl)-9-oxo-9,11-dihydroindolizino [1,2-b]quinolin-7-yl]pentanoic acid] | 80.00% | 75.00% | 79.00% | 69.00% | 38.00% | 21.00% | 5.00% | 86.00% | 85.00% | 89.00% | 63.00% | 30.00% | 16.00% | 2.00% | 93.00% | 92.00% | 98.00% | 97.00% | 44.00% | 31.00% | PERCENTAGE OF CELL PROLIFERATION ([3]; 100 000 nM): 10.00%; PERCENTAGE OF CELL PROLIFERATION ([4]; 0.1 nM): 92.14%; PERCENTAGE OF CELL PROLIFERATION ([4]; 1 nM): 97.14%; PERCENTAGE OF CELL PROLIFERATION ([4]; 10 nM): 91.08%; PERCENTAGE OF CELL PROLIFERATION ([4]; 100 nM): 86.28%; PERCENTAGE OF CELL PROLIFERATION ([4]; 1 000 nM): 46.79%; PERCENTAGE OF CELL PROLIFERATION ([4]; 10 000 nM): 27.80%; PERCENTAGE OF CELL PROLIFERATION ([4]; 100 000 nM): 8.09%; PERCENTAGE OF CELL PROLIFERATION ([5]; 0.1 nM): 91.00%; PERCENTAGE OF CELL PROLIFERATION ([5]; 1 nM): 92.00%; PERCENTAGE OF CELL PROLIFERATION ([5]; 10 nM): 86.00%; PERCENTAGE OF CELL PROLIFERATION ([5]; 100 nM): 78.00%; PERCENTAGE OF CELL PROLIFERATION ([5]; 1 000 nM): 54.00%; PERCENTAGE OF CELL PROLIFERATION ([5]; 10 000 nM): 20.00%; PERCENTAGE OF CELL PROLIFERATION ([5]; 100 000 nM): 7.00%
CCc1c2c(nc3ccccc13)-c1cc3c(c(=O)n1C2)COC(=O)CC3(O)CC (stereo not shown) [Example 9, 5,12-diethyl-5-hydroxy-1,4,5,13-tetrahydro-3H,15H-oxepino[3′,4′:6,7]indolizino[1,2-b]quinoline-3,15-dione] | 74.00% | 85.00% | 44.00% | 31.00% | 21.00% | 4.00% | 2.00% | 89.00% | 69.00% | 24.00% | 18.00% | 8.00% | 3.00% | 1.00% | 97.00% | 89.00% | 44.00% | 36.00% | 19.00% | 3.00% | PERCENTAGE OF CELL PROLIFERATION ([3]; 100 000 nM): 1.00%; PERCENTAGE OF CELL PROLIFERATION ([4]; 0.1 nM): 74.04%; PERCENTAGE OF CELL PROLIFERATION ([4]; 1 nM): 62.05%; PERCENTAGE OF CELL PROLIFERATION ([4]; 10 nM): 44.72%; PERCENTAGE OF CELL PROLIFERATION ([4]; 100 nM): 34.01%; PERCENTAGE OF CELL PROLIFERATION ([4]; 1 000 nM): 20.20%; PERCENTAGE OF CELL PROLIFERATION ([4]; 10 000 nM): 4.34%; PERCENTAGE OF CELL PROLIFERATION ([4]; 100 000 nM): 1.58%; PERCENTAGE OF CELL PROLIFERATION ([5]; 0.1 nM): 94.00%; PERCENTAGE OF CELL PROLIFERATION ([5]; 1 nM): 89.00%; PERCENTAGE OF CELL PROLIFERATION ([5]; 10 nM): 59.00%; PERCENTAGE OF CELL PROLIFERATION ([5]; 100 nM): 35.00%; PERCENTAGE OF CELL PROLIFERATION ([5]; 1 000 nM): 15.00%; PERCENTAGE OF CELL PROLIFERATION ([5]; 10 000 nM): 8.00%; PERCENTAGE OF CELL PROLIFERATION ([5]; 100 000 nM): 3.00%
